US8333987B2 (priority 2008, dated 2012)
Like-named read-outs stand apart in the source and are kept apart here.

Legend:
Nourin [1] = assay: Chemotactic activity of Nourin in supernatants of H1N1 (PR8) infected MDCK cells; assay type: cell-based; conditions: 5×10^−6 M Nourexin-4, all time points 1-24 hours, FIG. 5
Nourin [2] = assay: Chemotactic activity in serum of H1N1 (WSN) influenza infected mice, human PMNs as indicator cells; assay type: cell-based, mouse; conditions: 5×10^−6 M Nourexin-4; serum diluted 1/7, 6 hours post H1N1 (WSN) infection; FIG. 6
Nourin [3] = assay: Neutrophil chemotaxis induced by Nourin; assay type: cell-based; conditions: data not provided in graphical form
[4] = tested on: human peripheral neutrophils; conditions: FIG. 3
Source text: (§1) For these studies, a standard Neuroprobe chemotaxis system (Gaithersburg, Md.) and human peripheral neutrophils as indicator cells were used.

[5] = Water solubility of cyclocreatine; assay type: physicochemical; conditions: physiologically relevant zwitterion salt
Experimental: Therefore, sufficient drug is available in the gut lumen due to good solubility, but an absorptive transporter will be necessary to overcome the poor permeability characteristics of this compound. For effective therapy, it is necessary to deliver cyclocreatine effectively in sufficient quantities into the systemic blood stream. […] Moreover, the in vivo fate of a drug given by a particular administration route is determined by both the physicochemical properties of drug and the anatomical and physiological characteristics of the body. Most conventional drugs, once reaching the blood circulation, distribute freely throughout the body and show relatively even tissue distribution due to their low molecular weight.

[6] = tested on: human peripheral neutrophils; conditions: FIG. 2
Source text: as §1

[7] = organic solvents administered parenterally; cited from earlier work

In the case of `C/C=C/C[C@@H](C)[C@@H](O)[C@H]1C(=O)N[C@@H](CC)C(=O)N(C)CC(=O)N(C)[C@@H](CC(C)C)C(=O)N[C@@H](C(C)C)C(=O)N(C)[C@@H](CC(C)C)C(=O)N[C@@H](C)C(=O)N[C@H](C)C(=O)N(C)[C@@H](CC(C)C)C(=O)N(C)[C@@H](CC(C)C)C(=O)N(C)[C@H](C(C)C)C(=O)N1C` [Nourexin-4, Cyclosporine H], the “inhibition of chemotactic activity of H1N1 infected MDCK supernatant” value (Nourin [1]; 1/10 diluted supernatant) was “dramatic loss of chemotactic activity”, the “inhibition of chemotactic activity of H1N1 infected MDCK supernatant” value (Nourin [1]; undiluted supernatant) was “dramatic loss of chemotactic activity” and the “inhibition of virus induced LCF activity in mouse serum” value (Nourin [2]) was “majority of this virus induced LCF activity is clearly inhibited”. The “inhibition of neutrophil chemotaxis induced by Nourin” value (Nourin [3]) was “significantly inhibited”, the “inhibition of neutrophil chemotaxis induced by S. aureus-derived PSM3a” value ([4]; Nourexin-4 at 5×10^−4 M) was “completely blocked” and the “inhibition of neutrophil chemotaxis induced by S. aureus-derived PSM3a” value ([4]; Nourexin-4 at 5×10^−5 M) was “partially blocked”.
For t-Boc-FLFLF [Nourexin-1], the “inhibition of neutrophil chemotaxis induced by Nourin” value (Nourin [3]) was “significantly inhibited”.
For `NC1=NCCN1CC(=O)O` [cyclocreatine], the water solubility [5] was “relatively highly water-soluble”.
With “formyl-Methionine-Leucine-Phenylalanine [f-MLP]” the “neutrophil chemotactic activity induced in vitro” value [6] was “strong neutrophil chemotactic activity”.
For `CCO` [ethanol], the LD50 [7] is given as 21%.
For “phenol-soluble modulin 3a peptide [PSM3a, reference compound]”, the “neutrophil chemotactic activity induced in vitro” value [4] was “strong neutrophil chemotactic activity”.
For `CC(O)CO` (stereo not shown) [propylene glycol], the LD50 [7] is given as 5.7%.
In the case of `C[S+](C)[O-]` [DMSO, dimethylsulfoxide], the LD50 [7] is given as 5.1%.
